Data published in US20260091049A1, “HALIDE-FREE AMMONIUM SILANES” (TOPIKOS SCIENTIFIC, INC., priority 2022, published 2026).
Values joined by “and” are separate entries in the source; they are usually repeats but may differ in a detail not shown here. Identical values can stand only once.

How the values were obtained:
[1] = Clarity and dissolution of the solid product in water; assay type: physicochemical
Procedure: A 500 mL round bottom reaction vessel was outfitted with an oil bath, stir bar, distillation head and condenser, receiving flask, oil bubbler, gas inlet that allows argon to pass through vessel and distillation setup, an immersion thermoprobe for the oil bath, and a thermoprobe for the head. The reactor is charged with 47.6 mL of a 42% methanolic solution of dimethyloctadecyl[3-(trimethoxysilyl)propyl]ammonium chloride (Aldrich), 200 mL DMF, 27.7 g (3 equiv.) of N-Tris(hydroxymethyl)methyl-2-aminoethanesulfonic acid (TES) and 8.7 mL of 25% MeONa in MeOH. The mixture is heated to 125 degrees C. (oil temp) and the methanol is collected by distillation. As the reaction is heated a homogenous solution is formed. As the methanol is distilled off a white precipitate begins to form. The reaction is heated until the head temp drops and no more MeOH is evolved (about 1.5 hours). The reaction is then cooled to room temperature and the precipitate (NaCl) is removed by filtration through a glass fiber filter and the DMF was concentrated to about 100 mL total volume at reduced pressure. The solution is cooled to rt. A 1 L flask under argon and a stir bar is charged with anhydrous acetonitrile (1000 mL) and cooled to ˜10 C. The DMF solution is added slowly to rapidly stirring acetonitrile to form a white suspension. Stirring is continued for 30 minutes. […]

[2] = Polymerization stability in aqueous media by LCMS/MS quantification of hydrolyzed trisiloxy species; assay type: physicochemical

Row | SMILES | time a solution in water remains clear ([1]; 1% solution in water) [months] | dissolution of the powder in water ([1]; fine powder, water, gentle heating) | 2022 Concentration of Compound 1 hydrolysis product, average ([2]; average of three measurements after storage under ambient conditions for multiple years) | 2019 Concentration of Compound 1 hydrolysis product, average ([2]; average of three measurements, reference value immediately after preparation) | stability to polymerization in aqueous media ([2]; over prolonged periods of time) | 2022 Concentration of Compound 1 hydrolysis product ([2]; single measurements after storage under ambient conditions for multiple years, expected 60 μg/mL, expressed as Compound 1 equivalent) | 2019 Concentration of Compound 1 hydrolysis product ([2]; single measurements immediately after preparation, Compound 1 diluted in water to expected 60 μg/mL, expressed as Compound 1 equivalent)
1 | CCCCCCCCCCCCCCCCCC[N+](C)(C)CCC[Si](OCC(CO)(CO)NCCS(=O)(=O)[O-])(OCC(CO)(CO)NCCS(=O)(=O)O)OCC(CO)(CO)NCCS(=O)(=O)O [Example 1, 2-[[1-[[3-[dimethyl(octadecyl)ammonio]propyl-[3-hydroxy-2-(hydroxymethyl)-2-(2-sulfoethylamino)propoxy]-[3-hydroxy-2-(hydroxymethyl)-2-(2-sulfoethylamino)propoxy]silyl]oxymethyl]-2-hydroxy-1-(hydroxymethyl)ethyl]amino]-ethanesulfonate] | > 5 | dissolves quickly in water with gentle heating |  |  |  |  | 
2 | CCCCCCCCCCCCCCCCCC[N+](C)(C)CCC[Si](O)(O)O [Compound 1 hydrolysis product] |  |  | Average: 58.3 μg/mL | Average: 62.6 μg/mL | excellent stability to polymerization | 59.2 µg/mL and 54.8 µg/mL and 60.9 µg/mL | 69.1 µg/mL and 54.3 µg/mL and 64.4 µg/mL
